Assay results taken from ChEMBL document CHEMBL3808348, “Rational Design, Synthesis, and Biological Evaluation of 7-Azaindole Derivatives as Potent Focused Multi-Targeted Kinase Inhibitors” (J Med Chem, 2016).

Experiments:
[1] = Antiproliferative activity against human PC3 cells after 72 hrs by MTT assay; format: functional, cell-based; settings: PC-3, 72 h
[2] = Antiproliferative activity against human Caki2 cells after 72 hrs by MTT assay; format: functional, cell-based; settings: CAKI-2, 72 h
MDA-MB-231 = assay: Antiproliferative activity against human MDA-MB-231 cells after 72 hrs by MTT assay; format: functional, cell-based; settings: MDA-MB-231, 72 h
[3] = biological target: T1, Tyrosine-protein kinase ABL1 (Homo sapiens, UniProt P00519); assay: Inhibition of His-tagged full length human recombinant wild type ABL expressed in baculovirus using Fluorescein-Poly GT as substrate at 100 nM
[4] = biological target: Cytoplasmic tyrosine-protein kinase BMX (Homo sapiens) (UniProt P51813); assay: Inhibition of His-tagged full length human recombinant BMX expressed in baculovirus using Fluorescein-Poly GT as substrate at 100 nM
Cytoplasmic tyrosine-protein kinase BMX (Homo sapiens), sequence (P51813 whole entry, the tested form may be a part): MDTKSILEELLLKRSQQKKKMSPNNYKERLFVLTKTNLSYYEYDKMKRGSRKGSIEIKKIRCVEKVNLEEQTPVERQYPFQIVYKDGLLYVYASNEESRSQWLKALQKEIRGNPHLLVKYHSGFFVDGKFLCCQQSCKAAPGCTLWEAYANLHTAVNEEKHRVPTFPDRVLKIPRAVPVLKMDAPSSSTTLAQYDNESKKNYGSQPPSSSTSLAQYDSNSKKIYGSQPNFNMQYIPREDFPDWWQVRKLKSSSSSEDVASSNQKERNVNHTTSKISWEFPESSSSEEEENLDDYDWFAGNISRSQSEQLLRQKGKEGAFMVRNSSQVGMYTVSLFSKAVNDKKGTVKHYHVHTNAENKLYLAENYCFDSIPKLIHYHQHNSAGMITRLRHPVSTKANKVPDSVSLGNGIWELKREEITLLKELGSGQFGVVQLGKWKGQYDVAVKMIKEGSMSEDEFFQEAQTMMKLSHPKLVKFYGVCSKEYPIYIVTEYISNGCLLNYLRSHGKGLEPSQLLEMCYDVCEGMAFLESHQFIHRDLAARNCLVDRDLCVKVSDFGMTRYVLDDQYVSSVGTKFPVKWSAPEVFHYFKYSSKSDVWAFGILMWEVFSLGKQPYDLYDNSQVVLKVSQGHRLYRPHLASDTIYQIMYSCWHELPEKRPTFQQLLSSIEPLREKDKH

[5] = biological target: Ephrin type-B receptor 2 (Homo sapiens) (UniProt P29323); assay: Inhibition of GST-tagged human recombinant EPHB2 (616 to 884 residues) expressed in baculovirus using Fluorescein-Poly GT as substrate at 100 nM
[6] = biological target: Tyrosine-protein kinase Lck (Homo sapiens, UniProt P06239); assay: Inhibition of His-tagged full length human recombinant LCK expressed in baculovirus using Fluorescein-Poly GT as substrate at 100 nM
[7] = test system: Serine/threonine-protein kinase B-raf (Homo sapiens), P15056 [V600E]; assay: Inhibition of full length GST-tagged human recombinant BRAF V600E mutant expressed in baculovirus using Fluorescein-MAP2K1 as substrate at 100 nM
Serine/threonine-protein kinase B-raf (Homo sapiens), P15056 [V600E], sequence (P15056 whole entry V600E): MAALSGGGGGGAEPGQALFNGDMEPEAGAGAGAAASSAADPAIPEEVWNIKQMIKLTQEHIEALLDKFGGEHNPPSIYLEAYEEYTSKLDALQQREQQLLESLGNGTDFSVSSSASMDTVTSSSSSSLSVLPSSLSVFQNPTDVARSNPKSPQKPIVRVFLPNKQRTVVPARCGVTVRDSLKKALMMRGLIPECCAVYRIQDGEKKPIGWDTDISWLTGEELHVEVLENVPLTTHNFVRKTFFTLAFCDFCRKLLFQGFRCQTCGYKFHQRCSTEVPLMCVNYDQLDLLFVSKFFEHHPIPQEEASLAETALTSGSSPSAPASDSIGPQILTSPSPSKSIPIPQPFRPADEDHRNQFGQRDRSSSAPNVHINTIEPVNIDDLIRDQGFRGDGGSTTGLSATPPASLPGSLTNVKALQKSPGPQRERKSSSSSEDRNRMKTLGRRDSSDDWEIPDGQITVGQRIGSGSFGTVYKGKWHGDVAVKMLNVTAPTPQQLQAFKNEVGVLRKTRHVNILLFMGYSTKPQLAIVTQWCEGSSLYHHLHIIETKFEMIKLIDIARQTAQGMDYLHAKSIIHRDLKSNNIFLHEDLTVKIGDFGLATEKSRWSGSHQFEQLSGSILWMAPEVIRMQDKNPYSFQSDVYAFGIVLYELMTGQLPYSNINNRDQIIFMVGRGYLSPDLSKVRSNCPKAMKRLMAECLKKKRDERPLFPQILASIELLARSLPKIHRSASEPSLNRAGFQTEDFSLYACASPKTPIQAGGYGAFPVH

[8] = biological target: Tyrosine-protein kinase HCK (Homo sapiens, UniProt P08631); assay: Inhibition of GST-tagged full length human recombinant HCK expressed in baculovirus using Fluorescein-Poly GT as substrate
[9] = biological target: Tyrosine-protein kinase ABL1 (Homo sapiens, UniProt P00519, G250E); assay: Inhibition of His-tagged full length human recombinant ABL G250E mutant expressed in baculovirus using Fluorescein-Poly GT as substrate
[10] = biological target: Tyrosine-protein kinase ABL1 (Homo sapiens, UniProt P00519, Y253F); assay: Inhibition of His-tagged full length human recombinant ABL Y253F mutant expressed in baculovirus using Fluorescein-Poly GT as substrate
[11] = biological target: Serine/threonine-protein kinase B-raf (Homo sapiens) (UniProt P15056); assay: Inhibition of full length GST-tagged human recombinant BRAF expressed in baculovirus using Fluorescein-MAP2K1 as substrate at 100 nM
Serine/threonine-protein kinase B-raf (Homo sapiens), sequence (P15056 whole entry): as the sequence (P15056 whole entry V600E) above, with E600V counted along it

[12] = biological target: T1, Tyrosine-protein kinase ABL1; assay: Inhibition of His-tagged full length human recombinant wild type ABL expressed in baculovirus using Fluorescein-Poly GT as substrate
[13] = biological target: Proto-oncogene tyrosine-protein kinase Src (Homo sapiens, UniProt P12931); assay: Inhibition of full length His-tagged human recombinant cSRC expressed in baculovirus using Fluorescein-Poly GT as substrate at 100 nM
A549 = assay: Antiproliferative activity against human A549 cells after 72 hrs by MTT assay; format: functional, cell-based; settings: A549, 72 h
HT-29 = assay: Antiproliferative activity against human HT-29 cells after 72 hrs by MTT assay; format: functional, cell-based; settings: HT-29, 72 h
[14] = biological target: Protein kinase C epsilon type (Homo sapiens) (UniProt Q02156); settings: 100 nM
Description: Inhibition of full length human recombinant PKCepsilon expressed in baculovirus using Fluorescein-PKC as substrate at 100 nM

[15] = biological target: Serine/threonine-protein kinase D2 (Homo sapiens) (UniProt Q9BZL6); settings: 100 nM
Description: Inhibition of GST-tagged full length human recombinant PKD2 expressed in baculovirus using Fluorescein-CREBtide as substrate at 100 nM

[16] = biological target: Tyrosine-protein kinase Tec (Homo sapiens) (UniProt P42680); settings: 100 nM
Description: Inhibition of His-tagged full length human recombinant TEC expressed in baculovirus using Fluorescein-Poly GT as substrate at 100 nM

[17] = biological target: Angiopoietin-1 receptor (Homo sapiens) (UniProt Q02763); settings: 100 nM
Description: Inhibition of GST-tagged human recombinant TIE2 (817 to 1101 residues) expressed in baculovirus using Fluorescein-Poly GT as substrate at 100 nM

[18] = biological target: Vascular endothelial growth factor receptor 1 (Homo sapiens) (UniProt P17948); settings: 100 nM
Description: Inhibition of GST-tagged human recombinant VEGFR1 (781 to 1338 residues) expressed in baculovirus using Fluorescein-Poly GT as substrate at 100 nM

[19] = biological target: Tyrosine-protein kinase ZAP-70 (Homo sapiens) (UniProt P43403); settings: 100 nM
Description: Inhibition of His-tagged full length human recombinant ZAP70 expressed in baculovirus using Fluorescein-Poly GT as substrate at 100 nM

[20] = biological target: Tyrosine-protein kinase ABL2 (Homo sapiens) (UniProt P42684); settings: 100 nM
Description: Inhibition of His-tagged full length human recombinant ARG expressed in baculovirus using Fluorescein-Poly GT as substrate at 100 nM

[21] = biological target: Ephrin type-A receptor 4 (Homo sapiens) (UniProt P54764); settings: 100 nM
Description: Inhibition of GST-tagged human recombinant EPHA4 (616 to 887 residues) expressed in baculovirus using Fluorescein-Poly GT as substrate at 100 nM

[22] = biological target: Ephrin type-B receptor 4 (Homo sapiens) (UniProt P54760); settings: 100 nM
Description: Inhibition of His-tagged human recombinant EPHB4 (561 to 987 residues) expressed in baculovirus using Fluorescein-Poly GT as substrate at 100 nM

[23] = biological target: Tyrosine-protein kinase FRK (Homo sapiens, UniProt P42685); settings: 100 nM
Description: Inhibition of GST-tagged full length human recombinant FRK expressed in baculovirus using Fluorescein-Poly GT as substrate at 100 nM

[24] = biological target: Proto-oncogene tyrosine-protein kinase receptor Ret (Homo sapiens) (UniProt P07949); settings: 100 nM
Proto-oncogene tyrosine-protein kinase receptor Ret (Homo sapiens), sequence (P07949 whole entry): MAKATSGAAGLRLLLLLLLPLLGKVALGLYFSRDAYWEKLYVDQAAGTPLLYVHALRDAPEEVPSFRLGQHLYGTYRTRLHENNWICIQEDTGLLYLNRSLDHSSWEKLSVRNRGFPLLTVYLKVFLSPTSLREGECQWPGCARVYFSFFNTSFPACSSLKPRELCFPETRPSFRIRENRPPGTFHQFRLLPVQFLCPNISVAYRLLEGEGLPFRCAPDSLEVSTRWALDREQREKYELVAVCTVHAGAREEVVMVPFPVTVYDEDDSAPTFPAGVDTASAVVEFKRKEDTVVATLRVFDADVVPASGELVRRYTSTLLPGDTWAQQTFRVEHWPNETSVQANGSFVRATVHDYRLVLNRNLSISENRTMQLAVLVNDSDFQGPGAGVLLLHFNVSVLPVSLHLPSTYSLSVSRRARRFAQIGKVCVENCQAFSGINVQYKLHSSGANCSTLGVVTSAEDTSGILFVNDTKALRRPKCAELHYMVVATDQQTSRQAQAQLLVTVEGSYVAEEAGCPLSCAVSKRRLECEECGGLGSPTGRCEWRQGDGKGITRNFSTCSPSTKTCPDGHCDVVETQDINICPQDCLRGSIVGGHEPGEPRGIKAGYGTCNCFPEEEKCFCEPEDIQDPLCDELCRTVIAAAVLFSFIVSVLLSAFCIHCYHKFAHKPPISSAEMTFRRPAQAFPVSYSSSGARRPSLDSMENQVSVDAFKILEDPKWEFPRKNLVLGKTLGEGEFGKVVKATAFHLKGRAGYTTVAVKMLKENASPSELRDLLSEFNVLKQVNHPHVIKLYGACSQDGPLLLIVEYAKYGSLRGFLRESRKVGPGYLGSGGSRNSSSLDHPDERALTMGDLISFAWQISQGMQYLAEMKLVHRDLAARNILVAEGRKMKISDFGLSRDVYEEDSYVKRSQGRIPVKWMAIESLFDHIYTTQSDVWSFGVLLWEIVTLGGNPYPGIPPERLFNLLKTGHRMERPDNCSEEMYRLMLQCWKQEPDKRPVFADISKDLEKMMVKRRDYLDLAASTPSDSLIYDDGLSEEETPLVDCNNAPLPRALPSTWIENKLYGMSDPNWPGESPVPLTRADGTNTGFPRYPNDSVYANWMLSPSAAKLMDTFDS
Description: Inhibition of GST-tagged human recombinant RET (658 to 1114 residues) expressed in baculovirus using Fluorescein-Poly GT as substrate at 100 nM

[25] = test system: Tyrosine-protein kinase ABL1 (Homo sapiens), P00519 [T315I]; settings: 100 nM
Description: Inhibition of His-tagged full length human recombinant ABL1 T315I mutant expressed in baculovirus using Fluorescein-Poly GT as substrate at 100 nM

[26] = biological target: Aurora kinase A (Homo sapiens) (UniProt O14965); settings: 100 nM
Description: Inhibition of full length His-tagged human recombinant Aurora A expressed in baculovirus using Fluorescein-CREBtide as substrate at 100 nM

[27] = biological target: Aurora kinase B (Homo sapiens) (UniProt Q96GD4); settings: 100 nM
Aurora kinase B (Homo sapiens), sequence (Q96GD4 whole entry): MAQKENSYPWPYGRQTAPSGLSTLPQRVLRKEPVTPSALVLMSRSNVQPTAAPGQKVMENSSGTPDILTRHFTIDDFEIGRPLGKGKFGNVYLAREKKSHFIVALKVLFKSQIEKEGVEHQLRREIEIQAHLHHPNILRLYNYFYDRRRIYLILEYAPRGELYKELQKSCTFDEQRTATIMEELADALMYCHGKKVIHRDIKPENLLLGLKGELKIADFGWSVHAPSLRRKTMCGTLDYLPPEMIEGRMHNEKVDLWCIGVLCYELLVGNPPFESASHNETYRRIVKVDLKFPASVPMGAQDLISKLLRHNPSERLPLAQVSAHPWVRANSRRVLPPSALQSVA
Description: Inhibition of full length His-tagged human recombinant Aurora B expressed in baculovirus using Fluorescein-CREBtide as substrate at 100 nM

[28] = biological target: Tyrosine-protein kinase receptor UFO (Homo sapiens) (UniProt P30530); settings: 100 nM
Description: Inhibition of full length His-tagged human recombinant AXL expressed in insect expression system using Fluorescein-Poly GT as substrate at 100 nM

Homo sapiens = species on record: Homo sapiens; settings: 100 nM
Description: Inhibition of CK1 (unknown origin) at 100 nM

[29] = biological target: Tyrosine-protein kinase Mer (Homo sapiens) (UniProt Q12866); settings: 100 nM
Tyrosine-protein kinase Mer (Homo sapiens), sequence (Q12866 whole entry): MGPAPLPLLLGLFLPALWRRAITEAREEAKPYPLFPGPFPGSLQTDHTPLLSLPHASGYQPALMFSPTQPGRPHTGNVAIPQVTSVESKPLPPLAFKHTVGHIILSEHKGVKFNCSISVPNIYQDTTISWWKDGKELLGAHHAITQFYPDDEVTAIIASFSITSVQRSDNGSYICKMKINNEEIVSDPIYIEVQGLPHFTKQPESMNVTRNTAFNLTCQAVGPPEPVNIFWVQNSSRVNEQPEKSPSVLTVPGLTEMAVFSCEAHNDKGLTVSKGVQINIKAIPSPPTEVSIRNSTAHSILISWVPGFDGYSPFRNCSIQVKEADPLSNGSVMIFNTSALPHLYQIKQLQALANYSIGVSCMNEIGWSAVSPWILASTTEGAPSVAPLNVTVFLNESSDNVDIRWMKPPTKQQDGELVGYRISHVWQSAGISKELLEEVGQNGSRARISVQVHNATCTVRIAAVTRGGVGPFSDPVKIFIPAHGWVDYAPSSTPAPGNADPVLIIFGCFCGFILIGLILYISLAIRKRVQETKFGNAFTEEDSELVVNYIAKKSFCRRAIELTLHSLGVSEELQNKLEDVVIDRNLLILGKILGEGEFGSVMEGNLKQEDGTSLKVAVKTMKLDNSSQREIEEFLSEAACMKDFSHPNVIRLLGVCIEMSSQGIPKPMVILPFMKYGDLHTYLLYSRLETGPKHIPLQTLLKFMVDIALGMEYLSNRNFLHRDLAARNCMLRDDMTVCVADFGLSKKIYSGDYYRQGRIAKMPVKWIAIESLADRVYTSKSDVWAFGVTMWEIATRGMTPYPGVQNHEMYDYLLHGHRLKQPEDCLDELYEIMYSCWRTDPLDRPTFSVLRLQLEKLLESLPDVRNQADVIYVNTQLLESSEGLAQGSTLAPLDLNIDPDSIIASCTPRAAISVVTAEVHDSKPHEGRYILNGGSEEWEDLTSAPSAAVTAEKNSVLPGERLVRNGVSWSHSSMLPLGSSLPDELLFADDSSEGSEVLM
Description: Inhibition of GST-tagged human recombinant cMER expressed in baculovirus using Fluorescein-Poly GT as substrate at 100 nM

[30] = biological target: Hepatocyte growth factor receptor (Homo sapiens) (UniProt P08581); settings: 100 nM
Description: Inhibition of GST-tagged human recombinant cMET (956 to 1390 residues) expressed in baculovirus using Fluorescein-Poly GT as substrate at 100 nM

[31] = biological target: Tyrosine-protein kinase Fes/Fps (Homo sapiens) (UniProt P07332); settings: 100 nM
Tyrosine-protein kinase Fes/Fps (Homo sapiens), sequence (P07332 whole entry): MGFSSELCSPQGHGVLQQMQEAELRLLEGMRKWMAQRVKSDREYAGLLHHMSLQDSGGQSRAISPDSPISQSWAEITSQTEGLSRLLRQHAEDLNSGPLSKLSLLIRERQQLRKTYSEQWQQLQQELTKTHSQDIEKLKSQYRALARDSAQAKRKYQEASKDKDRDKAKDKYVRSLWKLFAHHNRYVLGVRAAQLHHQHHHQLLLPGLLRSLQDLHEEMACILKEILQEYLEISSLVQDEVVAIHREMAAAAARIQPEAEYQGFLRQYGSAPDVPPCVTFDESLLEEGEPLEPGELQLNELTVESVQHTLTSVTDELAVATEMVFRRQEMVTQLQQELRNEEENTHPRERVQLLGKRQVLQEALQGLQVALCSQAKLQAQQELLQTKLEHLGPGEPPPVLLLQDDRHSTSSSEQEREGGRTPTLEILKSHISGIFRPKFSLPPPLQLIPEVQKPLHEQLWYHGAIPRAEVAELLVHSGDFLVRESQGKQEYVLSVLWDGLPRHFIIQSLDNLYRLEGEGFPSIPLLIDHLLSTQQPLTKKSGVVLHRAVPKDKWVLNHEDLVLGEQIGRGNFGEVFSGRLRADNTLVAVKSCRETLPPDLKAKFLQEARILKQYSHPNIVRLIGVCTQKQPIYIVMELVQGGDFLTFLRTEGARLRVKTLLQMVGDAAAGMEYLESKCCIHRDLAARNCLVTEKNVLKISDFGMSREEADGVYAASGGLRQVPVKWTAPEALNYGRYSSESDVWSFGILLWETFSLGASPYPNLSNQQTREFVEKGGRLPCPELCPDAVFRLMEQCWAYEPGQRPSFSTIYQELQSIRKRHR
Description: Inhibition of His-tagged full length human recombinant FES expressed in baculovirus using Fluorescein-Poly GT as substrate at 100 nM

[32] = biological target: Glycogen synthase kinase-3 beta (Homo sapiens) (UniProt P49841); settings: 100 nM
Description: Inhibition of GSK3B (unknown origin) at 100 nM

[33] = biological target: Tyrosine-protein kinase JAK2 (Homo sapiens) (UniProt O60674); settings: 100 nM
Description: Inhibition of GST-tagged human recombinant JAK2 (809 to 1153 +9 residues) expressed in baculovirus using GFP-ST AT1 as substrate at 100 nM

[34] = biological target: Dual specificity mitogen-activated protein kinase kinase 1 (Homo sapiens) (UniProt Q02750); settings: 100 nM
Description: Inhibition of full length His-tagged human recombinant MEK1 expressed in baculovirus expression system at 100 nM

[35] = biological target: Phosphorylase b kinase gamma catalytic chain, liver/testis isoform (Homo sapiens) (UniProt P15735); settings: 100 nM
Description: Inhibition of human full length recombinant N-terminal GST-tagged PHKG2 expressed in baculovirus at 100 nM

[36] = biological target: Serine/threonine-protein kinase pim-1 (Homo sapiens) (UniProt P11309); settings: 100 nM
Description: Inhibition of His-tagged full length human recombinant PIM1 expressed in baculovirus using Fluorescein-CREBtide as substrate at 100 nM

[37] = biological target: Protein kinase C alpha type (Homo sapiens) (UniProt P17252); settings: 100 nM
Description: Inhibition of full length human recombinant PKCalpha expressed in baculovirus using Fluorescein-PKC as substrate at 100 nM

[38] = biological target: Testis-specific serine/threonine-protein kinase 2 (Homo sapiens) (UniProt Q96PF2); settings: 100 nM
Description: Inhibition of His-tagged full length human recombinant TSSK2 expressed in baculovirus at 100 nM

COC(=O)c1cc2cc(NCc3cc(NC(=O)c4cc(-n5cnc(C)c5)cc(C(F)(F)F)c4)ccc3C)cnc2[nH]1
EC50 [1]: 152 nM | EC50 [2]: 22 nM | EC50 (MDA-MB-231): 158 nM | inhibition [3]: > 80% | inhibition [4]: > 80% | inhibition [5]: > 80% | inhibition [6]: > 80% | inhibition [7]: > 80% | IC50 [8]: 22 nM | IC50 [9]: 46 nM | IC50 [10]: 51 nM | inhibition [11]: 54% | IC50 [12]: 6 nM | inhibition [13]: 49% | EC50 (A549): 64 nM | EC50 (HT-29): 37 nM | inhibition [14]: < 40% | inhibition [15]: < 40% | inhibition [16]: < 40% | inhibition [17]: < 40% | inhibition [18]: < 40% | inhibition [19]: < 40% | inhibition [20]: < 40% | inhibition [21]: < 40% | inhibition [22]: < 40% | inhibition [23]: < 40% | inhibition [24]: < 40% | inhibition [25]: < 40% | inhibition [26]: < 40% | inhibition [27]: < 40% | inhibition [28]: < 40% | inhibition (Homo sapiens): < 40% | inhibition [29]: < 40% | inhibition [30]: < 40% | inhibition [31]: < 40% | inhibition [32]: < 40% | inhibition [33]: < 40% | inhibition [34]: < 40% | inhibition [35]: < 40% | inhibition [36]: < 40% | inhibition [37]: < 40% | inhibition [38]: < 40%
